We go through one substance from patent US5919635A (ZymoGenetics, Inc., priority 1995, dated 1999).

Experiment [1] has as its system Human Glucagon Receptor (pLJ6') in BHK570 cells. The experiment is described as follows: In situ binding of iodinated glucagon, pLJ6'-transfected BHK570 clones. As for the experimental part: (§1) To prepare the transfectants for the ^125 I-glucagon binding assay, the spent media were aspirated from the cells, and the cells were washed three times with cold (4° C.) PBS. After the final wash, the cells were covered with Binding Media (Table 2) and incubated for ten minutes at room temperature. The media were replaced with 0.5 ml of Binding Media containing 0.5 nM ^125 I-glucagon (Amersham receptor grade, specific activity 2000 Ci/mmole; Amersham). The cells were then rocked at 30° C. for one hour. […] The media were aspirated from the cells, and the cells were washed three times with cold (4° C.) PBS. After the final wash, the cells were fixed with 1 ml of 2.5% glutaraldehyde in PBS at room temperature for 20 minutes. The glutaraldehyde was removed, and the cells were rinsed three time with PBS. The slides were air dried for one hour at room temperature, dipped in liquid photographic emulsion (Eastman Kodak Co., Rochester, N.Y.) according the manufacturer's directions, and dried at room temperature in the dark for at least 30 minutes. The slides were then plated in a light-proof box for 72 hours at 4° C.
Transfected cells were selected in the presence of G418 until single colonies were visible. Single colonies were cloned using cloning cylinders.

The test system of experiment [2] is Human Glucagon Receptor (pLJ6') in COS 7 cells. The experiment is described as follows: In situ ^125 I-glucagon binding with emulsion autoradiography, pLJ6'-transfected COS 7 cells. The settings on record: 72 hours after transfection. As for the experimental part:
as §1
Plasmid pLJ6' was transfected into COS 7 cells using a DEAE-dextran procedure described above. The cells were grown on glass chamber slides (as described in Example 3) for 72 hours after transfection.

Experiment [3] has as its target T1, rat liver membranes (glucagon receptor) (Rattus norvegicus, UniProt P30082).
T1 construct: Two batches of liver membranes were each prepared from approximately 80 gm of liver; from tissue; host or cells: rat liver membranes
The experiment is described as follows: Competition binding / Scatchard analysis with ^125 I-glucagon on rat liver membranes. To be noted: 30 minutes at 30° C., read-out: apparent Kd. As to the method:
Membranes from the pLJ4 BHK transfectants were compared with rat liver membrane preparations for the ability to bind ^125 I-glucagon. Membranes were prepared essentially described by Rodbell et al. (J. Biol Chem. 246:1861-1871, 1971, which is incorporated by reference herein in its entirety). Two batches of liver membranes were each prepared from approximately 80 gm of liver from 12 to 16 decapitated young female rats. The livers were removed quickly and placed into an iced beaker. The livers were separated into ten-gram portions. The portions were minced with scissors, and connective tissue was removed during the mincing procedure. The portions were separately homogenized in a Dounce homogenizer. […] The concentration of the solution was adjusted to 44.0%+/-0.1% using 69% sucrose or water as measured by a refractometer (Bausch & Lomb, Rochester, N.Y.). […]
The supernatant was carefully decanted and discarded. […] The absorbance was read in 1 cm cuvettes to determine protein concentration. Protein concentration was determined using the formula: [formula] […]
To each tube 100 μl of 2× binding buffer; 20 μl of ^125 I-glucagon (Amersham); 20 μl of 1 mM NaHCO3; 20 μl 10 mM HOAc, 0.5% BSA (Novo Nordisk N/A, Bagsvaerd, Denmark); and 40 μl of distilled water were added. […] The supernatants from each sample were aspirated, and the pellets were counted.

Experiment [4] deals with T2, rat glucagon receptor (Rattus norvegicus, UniProt P30082).
T2 construct: pLJ4 contained an approximately 2 kb insert encoding a 485 amino acid protein; expressed in transfected cells; host or cells: BHK/KZ6-19-46 (BHK570 with CRE-luciferase plasmid KZ6), clone KZ6/rGR-DHFR-2
T2 sequence (P30082 27-485): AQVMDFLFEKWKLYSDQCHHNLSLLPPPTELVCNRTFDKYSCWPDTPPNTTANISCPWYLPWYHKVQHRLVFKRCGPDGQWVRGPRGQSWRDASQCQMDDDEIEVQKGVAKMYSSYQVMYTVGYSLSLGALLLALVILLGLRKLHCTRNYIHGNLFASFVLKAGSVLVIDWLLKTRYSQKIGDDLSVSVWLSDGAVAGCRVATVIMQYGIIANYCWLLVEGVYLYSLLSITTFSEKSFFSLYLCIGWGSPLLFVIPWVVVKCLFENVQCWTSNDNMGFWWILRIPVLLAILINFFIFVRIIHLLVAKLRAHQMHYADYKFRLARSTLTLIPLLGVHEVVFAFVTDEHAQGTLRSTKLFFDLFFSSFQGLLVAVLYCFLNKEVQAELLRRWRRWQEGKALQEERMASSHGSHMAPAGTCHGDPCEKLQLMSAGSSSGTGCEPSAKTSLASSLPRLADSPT
The experiment is described as follows: cAMP response of clone KZ6/rGR-DHFR-2 by cAMP [^125 I] scintillation proximity assay. The format is cell-based. To be noted: 10 minutes at 37° C., 10 μM IBMX, read-out: ED50 (the source's name). As for the experimental part:
Briefly, 100 μl of 2×10^5 cells per ml KZ6/rGR-DHFR-2 cells were plated into the wells of a multi-well culture dish and grown overnight in selection media.
The cells were incubated with the agonists for 10 minutes at 37° C., 5% CO2. Following incubation, the cells were lysed by the addition of 200 μl of boiling water to each well. After 15 minutes the supernatants were collected and diluted 1:5 or 1:40 in acetate buffer (cAMP [^125 I] Scintillation Proximity Assay System (Amersham)). Samples were acetylated using triethylamine and acetic anhydride according to the protocol provided by the manufacturer.
A 100 μl aliquot of each acetylated sample was combined with 75 μl of ^125 I-cAMP, 75 μl anti-succinyl cAMP antisera and 75 μl of donkey anti-rabbit IgG coupled SPA beads (all assay solutions provided in the cAMP [^125 I] Scintillation Proximity Assay System (Amersham)) in a well of an LKB T-tray. The trays were sealed and incubated overnight with continuous shaking on a rotary platform shaker at 200 rpm. The samples were counted in a 1205 BETAPLATE liquid scintillation counter (Pharmacia LKB Instruments Inc., Gaithersburg, Md.). A standard curve of 2-128 fmol acetylated cAMP was also run. Total ^125 I-cAMP bound and non-specific binding were also determined.

T1 sequence (P30082 27-485): as above

Regarding “glucagon: 29 amino acid hormone produced by the alpha cells of pancreatic islets; human glucagon (Sigma)”, the “binding of glucagon by clones (in words)” value in experiment [1] is “shown to bind glucagon”. Besides, in experiment [2], the “cells transfected with pLJ6' that bound glucagon in a specific fashion” value is given as “Greater than 50%”. The Kd in experiment [3] stood at 49 nM. Further, in experiment [4], the EC50 was found to be 0.25 nM.
